From ChEMBL document CHEMBL1201862, “PubChem BioAssay data set” (2004) come the findings set out here.

The structures appear in SMILES notation. Calls of active or inactive are those of the source.

For experiment [1], the target named is T1, Dual specificity protein phosphatase 3 (Homo sapiens, UniProt P51452). Nature of the experiment: VHR1 phosphatase inhibitors, primary screen, biochemical, absorbance, uHTS (AID 1654).
The target of experiment [2] is T1, Dual specificity protein phosphatase 3. Nature of the experiment: VHR1 phosphatase inhibitors, biochemical (AID 1878).
In experiment [3] the target is T2, Polyadenylate-binding protein 1 (Homo sapiens, UniProt P11940). Put plainly: PABP1 MLLE–PAM2 binding inhibitor potency, dose response, biochemical, fluorescence polarization, FITC-PAM2 peptide (AID 602259). In kind it is functional. The note with it: read-out: IC50_Mean. On the technique in general: Polarisation of emitted light reports the rotation of a fluorescent probe.
T2 sequence (P11940 whole entry): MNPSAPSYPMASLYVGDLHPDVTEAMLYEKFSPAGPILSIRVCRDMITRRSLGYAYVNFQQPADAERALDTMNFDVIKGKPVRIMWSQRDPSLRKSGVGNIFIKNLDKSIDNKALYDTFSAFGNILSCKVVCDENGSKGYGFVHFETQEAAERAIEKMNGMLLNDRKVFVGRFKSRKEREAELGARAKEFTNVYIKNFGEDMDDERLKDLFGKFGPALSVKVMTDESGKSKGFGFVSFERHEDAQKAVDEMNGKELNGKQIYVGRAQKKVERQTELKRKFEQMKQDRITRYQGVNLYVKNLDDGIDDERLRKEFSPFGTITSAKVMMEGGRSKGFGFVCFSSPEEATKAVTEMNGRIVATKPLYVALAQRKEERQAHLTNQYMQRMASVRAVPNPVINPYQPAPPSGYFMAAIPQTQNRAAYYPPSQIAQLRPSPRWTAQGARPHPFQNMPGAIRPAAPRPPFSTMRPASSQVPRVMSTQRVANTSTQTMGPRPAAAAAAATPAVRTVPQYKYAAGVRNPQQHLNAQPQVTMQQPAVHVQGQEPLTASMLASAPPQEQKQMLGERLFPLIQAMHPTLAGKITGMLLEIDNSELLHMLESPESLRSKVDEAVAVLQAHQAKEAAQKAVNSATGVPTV

Experiment [4] addresses T3, Endoribonuclease toxin MazF (Escherichia coli K-12, UniProt P0AE70).
T3 sequence (P0AE70 whole entry): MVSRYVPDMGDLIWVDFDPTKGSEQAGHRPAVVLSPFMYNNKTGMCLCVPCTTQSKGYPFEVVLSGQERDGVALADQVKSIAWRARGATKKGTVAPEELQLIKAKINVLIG
Put plainly: fluorescent RNA oligo signal without MazF, dose response, counter-screen for MazEF activator project, biochemical, fluorescence, single-stranded RNase substrate (AID 588502). In kind it is functional.

Experiment [5] concerns the target T4, Histone-lysine N-methyltransferase NSD2 (Homo sapiens, UniProt O96028).
T4 sequence (O96028 whole entry): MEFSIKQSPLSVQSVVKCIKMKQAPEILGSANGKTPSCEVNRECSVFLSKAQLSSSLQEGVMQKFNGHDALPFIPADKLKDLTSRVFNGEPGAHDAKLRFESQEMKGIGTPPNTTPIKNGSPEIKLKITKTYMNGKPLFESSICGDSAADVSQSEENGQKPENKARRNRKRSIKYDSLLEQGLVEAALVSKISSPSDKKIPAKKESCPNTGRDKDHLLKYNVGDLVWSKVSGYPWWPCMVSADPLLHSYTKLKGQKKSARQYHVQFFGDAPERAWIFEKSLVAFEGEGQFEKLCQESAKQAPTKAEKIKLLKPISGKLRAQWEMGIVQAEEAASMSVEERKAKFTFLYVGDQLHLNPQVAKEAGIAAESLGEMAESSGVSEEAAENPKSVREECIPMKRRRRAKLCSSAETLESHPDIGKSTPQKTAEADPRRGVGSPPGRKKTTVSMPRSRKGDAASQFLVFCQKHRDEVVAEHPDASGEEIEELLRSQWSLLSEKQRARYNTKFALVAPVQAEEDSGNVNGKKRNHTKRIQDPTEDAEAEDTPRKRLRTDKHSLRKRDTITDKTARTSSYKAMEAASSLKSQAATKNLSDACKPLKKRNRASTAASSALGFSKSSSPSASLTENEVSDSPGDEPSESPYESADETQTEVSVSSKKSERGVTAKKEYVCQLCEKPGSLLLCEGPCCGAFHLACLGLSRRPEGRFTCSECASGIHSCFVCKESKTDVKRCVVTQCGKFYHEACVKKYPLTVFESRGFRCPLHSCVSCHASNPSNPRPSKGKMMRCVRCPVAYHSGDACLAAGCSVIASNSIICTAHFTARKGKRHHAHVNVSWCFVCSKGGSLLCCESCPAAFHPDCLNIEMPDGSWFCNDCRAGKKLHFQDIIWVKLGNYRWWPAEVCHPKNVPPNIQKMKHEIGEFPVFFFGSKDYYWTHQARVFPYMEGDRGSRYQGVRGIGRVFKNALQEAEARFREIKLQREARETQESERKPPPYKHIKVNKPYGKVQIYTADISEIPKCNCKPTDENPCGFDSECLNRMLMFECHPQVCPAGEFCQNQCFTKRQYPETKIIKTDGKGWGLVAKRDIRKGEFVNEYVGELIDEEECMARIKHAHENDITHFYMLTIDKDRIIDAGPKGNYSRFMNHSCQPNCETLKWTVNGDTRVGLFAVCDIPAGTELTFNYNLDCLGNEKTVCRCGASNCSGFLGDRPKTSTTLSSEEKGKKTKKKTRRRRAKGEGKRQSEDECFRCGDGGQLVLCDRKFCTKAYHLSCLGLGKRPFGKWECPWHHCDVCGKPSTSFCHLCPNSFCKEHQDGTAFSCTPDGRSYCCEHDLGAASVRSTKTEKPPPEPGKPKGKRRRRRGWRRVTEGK
The experiment is classed as biochemical.

The target of a further experiment is Albumin (Bos taurus, UniProt P02769). Nature of the experiment: Counterscreen for inhibitors of T-cell receptor (TCR)-CD3 interaction: Fluorescence-based biochemical high throughput dose response assay to identify inhibitors of T-cell receptor (TCR)-CD3 interaction using a TAMRA-labeled BSA probe. In kind it is functional. For orientation: The purpose of a counterscreen is to sort out artefacts and off-target activity.
Chain of Albumin (P02769 whole entry): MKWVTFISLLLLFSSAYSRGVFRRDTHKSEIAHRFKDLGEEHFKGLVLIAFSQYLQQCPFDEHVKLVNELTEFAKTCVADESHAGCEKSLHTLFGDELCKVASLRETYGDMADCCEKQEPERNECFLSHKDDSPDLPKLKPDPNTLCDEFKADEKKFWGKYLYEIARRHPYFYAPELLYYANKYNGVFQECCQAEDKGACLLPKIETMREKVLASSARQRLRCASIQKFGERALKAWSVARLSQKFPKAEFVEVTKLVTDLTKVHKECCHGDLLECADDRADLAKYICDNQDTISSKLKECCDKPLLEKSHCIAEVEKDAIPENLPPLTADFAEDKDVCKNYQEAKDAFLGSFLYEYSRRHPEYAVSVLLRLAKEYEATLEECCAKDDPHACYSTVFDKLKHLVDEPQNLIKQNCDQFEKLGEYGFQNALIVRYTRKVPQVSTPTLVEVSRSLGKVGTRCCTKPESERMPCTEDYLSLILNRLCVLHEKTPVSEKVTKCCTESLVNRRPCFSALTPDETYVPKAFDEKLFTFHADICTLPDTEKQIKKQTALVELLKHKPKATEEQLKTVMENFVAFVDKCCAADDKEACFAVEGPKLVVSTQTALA

The target in the next experiment is Troponin, cardiac muscle (Homo sapiens, UniProt P19429+P45379+P63316). Put plainly: inhibitors of cardiac thin filament calcium sensitivity, dose response, biochemical, fluorescence, cardiac regulated thin filaments, triplicate IC50 (AID 504742). The experiment is classed as protein-complex assay.
The target in the next experiment is Caspase-7 (Homo sapiens, UniProt P55210). Nature of the experiment: human caspase-7 inhibitors, dose response, selectivity assay for caspase-6 inhibitor project, biochemical, DEVD-R110 fluorescence, cherry-pick (AID 743295). The experiment is classed as […].
Chain of Caspase-7 (P55210 24-198 limits assumed): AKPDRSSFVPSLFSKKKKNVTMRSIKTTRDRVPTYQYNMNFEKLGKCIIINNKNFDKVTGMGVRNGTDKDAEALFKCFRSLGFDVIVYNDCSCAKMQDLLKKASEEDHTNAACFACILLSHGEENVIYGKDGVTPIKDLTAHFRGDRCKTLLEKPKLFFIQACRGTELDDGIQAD
Chain of Caspase-7 (P55210 207-303 limits assumed): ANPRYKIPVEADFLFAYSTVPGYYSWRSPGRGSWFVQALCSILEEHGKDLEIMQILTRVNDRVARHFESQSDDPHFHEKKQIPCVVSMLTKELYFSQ
The target in experiment [6] is Bifunctional protein GlmU (Mycobacterium tuberculosis, UniProt P9WMN3). Put plainly: Inhibitors of Mycobacterial Glucosamine-1-phosphate acetyl transferase (GlmU). Secondary screen. On the set-up: species or system Mycobacterium tuberculosis H37Rv.
Chain of Bifunctional protein GlmU (P9WMN3 whole entry): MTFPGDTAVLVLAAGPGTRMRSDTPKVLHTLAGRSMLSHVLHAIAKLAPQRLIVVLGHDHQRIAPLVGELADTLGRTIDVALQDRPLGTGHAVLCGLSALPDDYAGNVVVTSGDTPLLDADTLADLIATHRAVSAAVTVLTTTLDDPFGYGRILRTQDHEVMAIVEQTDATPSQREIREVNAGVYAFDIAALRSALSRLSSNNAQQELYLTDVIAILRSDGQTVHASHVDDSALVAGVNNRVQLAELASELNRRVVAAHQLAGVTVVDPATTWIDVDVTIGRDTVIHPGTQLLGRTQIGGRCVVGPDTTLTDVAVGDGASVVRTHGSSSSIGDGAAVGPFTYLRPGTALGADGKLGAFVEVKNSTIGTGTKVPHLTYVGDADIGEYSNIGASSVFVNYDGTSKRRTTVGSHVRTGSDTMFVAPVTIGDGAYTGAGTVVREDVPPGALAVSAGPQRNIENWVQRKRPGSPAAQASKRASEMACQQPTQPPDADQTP
The next experiment has as its target Genome polyprotein (dengue virus type 2, UniProt P29990). Put plainly: Dengue-2 NS5 methyltransferase inhibitors, primary screen, biochemical, confirmation dose response (AID 588689). The experiment is classed as functional.
Experiment [7] has as its target T2, Polyadenylate-binding protein 1. Put plainly: PABP1 MLLE–PAM2 interaction inhibitors, dose response, miRNA deadenylation inhibitor project, biochemical, fluorescence polarization, Cy5-PAM2 peptide, secondary (AID 602260). In kind it is functional. The following applies: read-out: IC50_Mean.
Experiment [8] has as its target T5, Zinc finger protein mex-5 (Caenorhabditis elegans, UniProt Q9XUB2).
T5 sequence (Q9XUB2 whole entry): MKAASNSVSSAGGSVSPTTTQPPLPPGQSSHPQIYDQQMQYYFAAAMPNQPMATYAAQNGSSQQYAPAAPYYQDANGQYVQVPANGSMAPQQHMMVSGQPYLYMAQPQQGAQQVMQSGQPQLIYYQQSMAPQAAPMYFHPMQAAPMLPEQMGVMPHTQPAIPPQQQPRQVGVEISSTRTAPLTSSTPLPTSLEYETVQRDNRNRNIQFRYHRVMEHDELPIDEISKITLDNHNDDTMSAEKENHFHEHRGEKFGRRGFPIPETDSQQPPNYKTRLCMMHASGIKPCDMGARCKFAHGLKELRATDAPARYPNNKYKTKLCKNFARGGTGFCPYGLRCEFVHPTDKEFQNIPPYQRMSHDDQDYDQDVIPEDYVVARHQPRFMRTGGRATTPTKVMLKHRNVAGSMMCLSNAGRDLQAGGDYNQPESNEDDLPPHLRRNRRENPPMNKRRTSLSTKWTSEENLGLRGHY
Put plainly: MEX-5/TCR-2 RNA interaction inhibitors, dose response, biochemical, C. elegans, fluorescence polarization (AID 1960).

T1 sequence (P51452 whole entry): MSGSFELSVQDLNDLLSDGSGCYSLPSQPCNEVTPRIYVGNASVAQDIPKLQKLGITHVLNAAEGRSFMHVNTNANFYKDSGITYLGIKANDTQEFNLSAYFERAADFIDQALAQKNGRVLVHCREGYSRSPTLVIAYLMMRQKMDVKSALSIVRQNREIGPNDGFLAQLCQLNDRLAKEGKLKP
Chain of Genome polyprotein (P29990 2492-3391 limits assumed): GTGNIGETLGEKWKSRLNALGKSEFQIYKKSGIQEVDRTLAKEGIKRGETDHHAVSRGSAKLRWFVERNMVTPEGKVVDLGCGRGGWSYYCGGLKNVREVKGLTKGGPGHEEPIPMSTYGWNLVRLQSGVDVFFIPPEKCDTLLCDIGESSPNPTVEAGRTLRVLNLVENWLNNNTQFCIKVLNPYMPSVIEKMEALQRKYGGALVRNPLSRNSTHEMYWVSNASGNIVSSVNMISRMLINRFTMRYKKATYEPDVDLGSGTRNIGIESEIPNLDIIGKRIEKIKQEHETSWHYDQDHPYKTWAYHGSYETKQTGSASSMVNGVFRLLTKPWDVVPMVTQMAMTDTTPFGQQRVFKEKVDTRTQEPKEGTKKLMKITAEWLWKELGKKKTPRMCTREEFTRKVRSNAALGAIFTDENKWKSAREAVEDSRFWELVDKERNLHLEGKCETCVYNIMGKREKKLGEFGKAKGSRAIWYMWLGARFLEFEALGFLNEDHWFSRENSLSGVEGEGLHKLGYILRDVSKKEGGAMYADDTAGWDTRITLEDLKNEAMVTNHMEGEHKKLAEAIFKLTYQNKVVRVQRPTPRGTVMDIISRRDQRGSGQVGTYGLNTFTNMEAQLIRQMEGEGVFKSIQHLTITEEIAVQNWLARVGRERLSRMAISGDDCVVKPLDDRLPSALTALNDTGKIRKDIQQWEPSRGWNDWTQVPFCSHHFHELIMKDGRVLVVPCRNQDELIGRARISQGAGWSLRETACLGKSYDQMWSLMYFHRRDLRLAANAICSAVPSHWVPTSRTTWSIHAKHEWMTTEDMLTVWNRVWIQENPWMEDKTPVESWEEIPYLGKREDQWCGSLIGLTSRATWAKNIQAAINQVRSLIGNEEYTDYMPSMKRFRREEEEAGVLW

For `O=c1c(O)cccc2cc(O)c(O)c(O)c12` [PURPUROGALLIN], the IC50 in [1] is < 0.98 µM (inactive); in [2], < 1.23 µM (inactive); in [3] it was 47.9 µM (inactive); on Albumin, > 94.1 µM (inactive); on Troponin, cardiac muscle, 3.62 µM (active); in [6] it was 21.5 µM (active). Besides, the IC50 was 12.2 µM (active) at Genome polyprotein and > 66 µM (inactive) in experiment [7]. Further, the figures for the EC50 in [4] and in [8] were > 99 µM (inactive) and 0.152 µM (active), respectively. Further, the AC50 – broadly, the midpoint of the concentration-response curve, whichever way the signal moves – in experiment [5] was 0.532 µM (active); on Caspase-7, 1.09 µM (active).
